From PubChem BioAssay (NCI)
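Protocol summary: plate cells (96-well), add compound at 5 concentrations, incubate 48 h, interpolate endpoints linearly. GI50 marks 50% less growth. TGI denotes the concentration required for complete inhibition of growth.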

Legend:
Assay in all cases: NCI tumour cell line growth inhibition, 48 h
CCRF-CEM leukemia = system: CCRF-CEM leukemia
HCT-116 colon = system: HCT-116 colon
HCT-15 colon = system: HCT-15 colon
HOP-62 NSCLC = system: HOP-62 NSCLC
NCI-H460 lung = system: NCI-H460 lung
OVCAR-8 ovarian = system: OVCAR-8 ovarian
SK-OV-3 ovarian = system: SK-OV-3 ovarian
SR leukemia = system: SR leukemia
TK-10 renal = system: TK-10 renal
HT29 colon = system: HT29 colon

Row | Compound | TGI (CCRF-CEM leukemia) [µM] | TGI (HCT-116 colon) [µM] | TGI (HCT-15 colon) [µM] | TGI (HOP-62 NSCLC) [µM] | TGI (NCI-H460 lung) [µM] | TGI (OVCAR-8 ovarian) [µM] | TGI (SK-OV-3 ovarian) [µM] | TGI (SR leukemia) [µM] | TGI (TK-10 renal) [µM] | TGI (HT29 colon) [µM] | GI50 (CCRF-CEM leukemia) [µM] | GI50 (HCT-116 colon) [µM] | GI50 (HCT-15 colon) [µM] | GI50 (HOP-62 NSCLC) [µM] | GI50 (OVCAR-8 ovarian) [µM] | GI50 (SK-OV-3 ovarian) [µM] | GI50 (SR leukemia) [µM] | GI50 (TK-10 renal) [µM] | GI50 (HT29 colon) [µM] | GI50 (NCI-H460 lung) [µM]
1 | CCCCCCCCCCCCOP(N)(=O)OCCCCCCCCCCCC | > 100 | > 100 | > 100 | > 100 | > 100 | > 100 | > 100 | > 100 | > 100 | – | – | – | – | – | – | – | – | – | – | –
2 | C[C@@H]1C[C@]2(C[C@@H](C)C3[C@@H](CC4(C)[C@@H]5CCC6C(C)(C)OC(=O)C=C[C@]67C[C@@]5(CC[C@]34C)OO7)O2)OC1=O (stereo not given in full) | – | > 100 | > 100 | – | > 100 | > 100 | > 100 | > 100 | > 100 | > 100 | – | – | – | – | – | – | – | – | – | –
3 | CC1=NN(C(=O)c2ccccc2O)C(=O)/C1=C/c1cccc([N+](=O)[O-])c1 | > 100 | > 67.7 | > 100 | – | > 100 | > 100 | > 100 | > 100 | > 100 | > 100 | – | – | – | – | – | – | – | – | – | –
4 | COc1cnc2cc(C(=O)O)c3ccccc3c2c1 | > 100 | > 100 | > 100 | > 100 | > 100 | > 100 | > 100 | > 100 | > 100 | > 100 | – | – | – | – | – | – | – | – | – | –
5 | C#CCN(Cc1ccc2nc(N)[nH]c(=O)c2c1)c1ccc(C(=O)NC(CCC(=O)O)C(=O)O)cc1 (stereo not given) | > 100 | > 100 | > 100 | > 100 | > 100 | > 100 | > 100 | > 100 | > 100 | > 100 | – | – | – | – | – | – | – | – | – | –
6 | O=C(c1ccc(Cl)cc1)C1OC12C(=O)Nc1ccccc12 (stereo not given) | 4.71 | 13.6 | 11.2 | > 73.3 | 47.1 | 36 | 60.4 | 3.22 | 35.2 | 27.5 | – | – | – | – | – | – | – | – | – | –
7 | N#CC1C=Cc2ccccc2N1C(=O)Oc1ccccc1 (stereo not given) | 81.6 | > 100 | > 100 | – | > 100 | > 100 | – | > 100 | > 100 | > 100 | – | – | – | – | – | – | – | – | – | –
8 | COc1ccc2nc3ccccc3c(NCCCCN(C)CCCl)c2c1 | 0.229 | 0.303 | 0.494 | 0.546 | 0.234 | – | 0.469 | 0.0355 | > 31.9 | 1.46 | – | – | – | – | – | – | – | – | – | –
9 | C/C(CC(=O)N(C(C)C)C(C)C)=N\NC(=O)c1ccncc1 | > 100 | > 100 | > 100 | – | – | > 100 | > 100 | > 100 | – | > 100 | – | – | – | – | – | – | – | – | – | –
10 | CC1(C)CC[C@]2(C(N)=O)CC[C@]3(C)C(=CC[C@@H]4[C@@]5(C)C/C(=C/c6ccncc6)C(=O)C(C)(C)[C@@H]5CC[C@]43C)[C@@H]2C1 | 5.45 | 2.99 | 3.46 | 4.71 | – | > 100 | 11.9 | 6.5 | 7.5 | – | 2.13 | 1.49 | 1.69 | 2.01 | 3.2 | 3.13 | 2.18 | 2.43 | – | –
11 | CC1CC2(C)CC(=O)C1C1C(=O)N(CCN3CCCCC3)C(=O)C12 (stereo not given) | > 100 | > 100 | > 100 | > 100 | – | > 100 | > 100 | > 100 | > 100 | > 100 | > 100 | > 100 | > 100 | > 100 | > 100 | > 100 | > 100 | > 100 | > 100 | –
12 | CC(=O)N(Cc1ccccc1)c1ccccc1I(=O)=O | 35.5 | – | 40.5 | – | 58.5 | > 100 | > 100 | 4.37 | > 100 | > 100 | 16.6 | – | 19.8 | – | 48.3 | 81.1 | 0.18 | 45.2 | 27.8 | 22.8
13 | CC1=C(C(=O)Nc2ccc(Cl)c(Cl)c2)C(c2ccccc2O)NC(=O)N1 (stereo not given) | > 50 | – | > 50 | > 50 | > 50 | > 50 | > 50 | > 50 | > 50 | – | > 50 | – | > 50 | > 50 | 24.8 | > 50 | 39.9 | 22.1 | – | > 50
14 | Cc1ccc(NC(=O)CC(=O)N2N=C(N(CCC#N)c3cccc(C)c3)CC2c2ccccc2)cc1 (stereo not given) | > 100 | > 100 | > 100 | > 100 | > 100 | > 100 | > 100 | > 100 | – | > 100 | – | – | – | – | – | – | – | – | – | –
15 | O=C1CN(/N=C/c2ccc(-c3ccc(F)cc3)o2)C(=O)N1 | > 100 | > 100 | > 100 | > 100 | > 100 | > 100 | > 100 | 75.7 | > 100 | – | – | – | – | – | – | – | – | – | – | –
16 | COc1cccc(C2NC(=S)NC(C)=C2C(=O)Nc2ccc(Cl)c(Cl)c2)c1 (stereo not given) | – | 15.9 | 22.6 | 20.3 | 16.3 | 23.9 | > 50 | > 50 | 28.6 | – | – | 8.47 | 8.57 | 11.6 | 12.4 | 21.3 | 42.6 | 12.8 | – | 8.21
17 | CCOC(=O)C1COc2cc(-c3cc(=O)c4ccccc4o3)ccc2O1 (stereo not given) | > 100 | > 100 | – | – | > 100 | 93.6 | > 100 | > 100 | > 100 | 56.3 | – | – | – | – | – | – | – | – | – | –
18 | COc1cc2c(c(OC)c1OC)-c1ccc(SC)c(=O)cc1[C@@H](NC(=O)c1ccc(Cl)cc1)CC2 | > 100 | 11.3 | 0.026 | 2.03 | 10.5 | > 100 | – | > 100 | > 100 | 11.2 | – | – | – | – | – | – | – | – | – | –
19 | COC(=O)CC(C(C(C)=O)C(=O)OCc1ccccc1)N1C(=O)OCC1c1ccccc1 (stereo not given) | > 100 | > 100 | > 100 | > 100 | > 100 | > 100 | – | > 100 | > 100 | > 100 | – | – | – | – | – | – | – | – | – | –
20 | O=S(=O)(c1ccc(O)c(C=Nc2ccc(Cl)cc2)c1)c1ccc(O)c(C=Nc2ccc(Cl)cc2)c1 | > 100 | > 100 | – | > 100 | > 100 | > 100 | > 100 | > 100 | > 100 | > 100 | – | – | – | – | – | – | – | – | – | –
